Source: patent US11020481B2 (priority 2008, dated 2021)

Columns and labels:
IL-8 [1] = assay: IL-8 production in TNFα-induced NL20 cells (ELISA); assay type: cell-based, human; conditions: for levels of IL-8 decreased: p<0.005
Description: (§1) Am J Physiol Lung Cell Mol Physiol 2007; 292:[…]-352; and Donnarumma G, et al. Anti-inflammatory effects of moxifloxacin and human beta-defensin 2 association in human lung epithelial cell line (A549) stimulated with lipopolysaccharide. Peptides 2007; 28:2286-2292, incorporated by reference in their entireties). […] The effect of antibiotics on cytokine levels was assessed by ELISA assay. […] The day after seeding, cells received normal growth medium without serum for an additional 24 h. […] IL-6 and IL-8 production in NL20 monolayers was induced by treatment with 10 ng/ml of TNFα. […] After 48 h, cell medium was collected, clarified and the amount of IL-6 and IL-8 released into the medium was quantified using QuantiGlo chemiluminescent ELISA kits (R&D Systems, Minneapolis, Minn.). To test the effect of antibiotics on IL-6 and IL-8 secretion, antibiotics were added to culture media along with LPS or TNF-α and processed as described above.

IL-6 [2] = assay: IL-6 levels in BAL of LPS-injected mice after aerosol treatment; assay type: in vivo; conditions: LPS i.p., aerosol 60 mg/kg, BAL at 6 hours
Description: (§2) Mice (n=4) were injected with 50 μg LPS by an intraperitoneal route. […] Mice were sacrificed 6 hours after aerosolized treatment, and bronchoalveolar (BAL) fluid was collected by lavage with 1 ml saline. IL-6 and MIP-2 (murine homolog of human IL-8) levels were determined by ELISA.

HBE135 cells = assay: Cytotoxicity on HBE135 cells, Alamar Blue assay; assay type: cell-based, human; conditions: for changes in cell viability in cytotoxicity assays: Example 5, LPS-induced HBE135 cells, 10-300 μg/ml, data not shown
Description: (§3) After 48 hour incubation with the antibiotic, cells were incubated in fresh growth media containing 5% Alamar Blue dye and fluorescence was recorded at 0 h and 4 h to assess antibiotic cytotoxicity.

IL-6 [3] = assay: IL-6 production in LPS-induced HBE135 cells (ELISA); assay type: cell-based, human; conditions: for decrease in IL-6 levels: Example 5, 5 μg/ml LPS
Description: as §1

MIP-2 = MIP-2 levels in BAL of LPS-injected mice after aerosol treatment; assay type: in vivo; conditions: 50 μg LPS i.p., aerosol 60 mg/kg 30 min after LPS, BAL 6 hours after treatment
Description: as §2

IL-6 [4] = assay: IL-6 production in TNFα-induced NL20 cells (ELISA); assay type: cell-based, human
Description: as §1

[5] = test system: IL-8, IL-6, ERK1/2, MK, and NFKB; conditions: human lung epithelia cells; antibiotic concentrations less than 50 μg/ml; cited from earlier work
NL20 cells = test system: NL20 cells
Description: as §3

IL-8 [6] = assay: IL-8 production in LPS-induced HBE135 cells (ELISA); assay type: cell-based, human
Description: as §1

IL-8 mRNA = IL-8 mRNA expression in TNFα-induced NL20 cells (real-time PCR); assay type: cell-based, human; conditions: NL20 monolayers, 10 ng/ml TNFα, 24 h; 100 μg/ml and 300 μg/ml
Description: IL-8 mRNA expression in NL20 monolayers was induced by treatment with 10 ng/ml TNFα. Levofloxacin was added simultaneously with TNFα. After 24 h incubation, the cell monolayer was washed with PBS, total cellular RNA was prepared and reverse transcription was performed using a human IL-8 specific primer and the “Cells-to-cDNA” kit from Ambion (Austin, Tex.). cDNA was subjected to real-time PCR analysis using PowerSYBR Green PCR master mix and a GeneAmp 5700 Instrument (Applied Biosystems; Warrington, UK). All data were normalized to the housekeeping gene β-actin. […] This increase correlates with the increased levels of IL-8 protein induced by TNFα.

IL-1β = IL-1β production in LPS-stimulated THP-1 cells (ELISA); assay type: cell-based, human; conditions: 24 h
Description: The human monocyte cell line, THP-1 is an established in vitro model of human monocytic cells and is capable to secrete a greater variety of cytokines compared to NL20 and HBE135 cells. THP-1 cells were cultured in RPMI-1640 medium with 10% FBS, 0.05 mM 2-mecraptoethanol. THP-1 cells were seeded on 24-well tissue culture plates at 1×10^6 cells/ml in growth media without serum. The following day, 100 ng/ml LPS from P. aeruginosa and antibiotics were added and cells incubated for 24 hours before media collection to assess cytokine production. Quantification of IL-6, IL-8, IL-1β and TNFα production was performed as described above for NL20 cells.

[7] = Example 5, NL20 cells, TNFα, 10 μg/ml to 100 μg/ml
[8] = summary of Example 5, cultured human lung epithelial cell lines (line not given)
[9] = Example 5, NL20 cells, TNFα, 300 μg/ml
[10] = Example 3, NL20 cells induced with TNFα, 300 μg/ml
[11] = summary of Example 5, cultured human lung epithelial cell lines (line not given), 300 μg/ml, p<0.05

SMILES: NC[C@H]1O[C@H](O[C@H]2[C@H](O)[C@@H](O[C@H]3O[C@H](CO)[C@@H](O)[C@H](N)[C@H]3O)[C@H](N)C[C@@H]2N)[C@H](N)C[C@@H]1O [tobramycin]
- production of IL-8 (IL-8 [1]; [7]): did not significantly affect
- effect on IL-8 (IL-8 [1]; [8]): no effect
- IL-6 levels compared to the saline control (IL-6 [2]): increase
- changes in cell viability in cytotoxicity assays (HBE135 cells): No significant changes
- levels of IL-6 (IL-6 [3]; Example 5, LPS, 10 μg/ml, 30 μg/ml, or 100 μg/ml): did not affect
- increased levels of IL-6 (IL-6 [3]; Example 5, LPS, 300 μg/ml): 30%
- mean MIP-2 levels (MIP-2): 502 pg/mL
- production of IL-6 (IL-6 [4]; [7]): did not significantly affect
- IL-6 production (IL-6 [4]; [9]): increase
- increased IL-6 levels (IL-6 [4]; [8]): 50%

SMILES: Cc1c(F)c(N2CCNC(C)C2)cc2c1c(=O)c(C(=O)O)cn2C1CC1 (centres unmarked) [grepafloxacin]
- secretion of pro-inflammatory factor such as IL-8, IL-6, ERK1/2, MK, and NFKB [5]: can inhibit

SMILES: C[C@H]1COc2c(N3CCN(C)CC3)c(F)cc3c(=O)c(C(=O)O)cn1c23 [levofloxacin]
- cytotoxicity compared to moxifloxacin and ciprofloxacin (NL20 cells): less cytotoxic
- reduction in IL-8 levels (IL-8 [1]; [10]): ~5 fold
- levels of IL-8 decreased (IL-8 [1]; Example 5, NL20 cells, TNFα, 100 μg/ml): 50%
- levels of IL-8 decreased (IL-8 [1]; [9]): 60%
- reduced levels of IL-8 (IL-8 [1]; [11]): 2 fold
- levels of IL-8 decreased (IL-8 [6]; Example 5, 100 μg/ml): 30%
- levels of IL-8 decreased (IL-8 [6]; Example 5, 300 μg/ml): 20%
- level of IL-8 mRNA expression (IL-8 mRNA): no significant effect
- IL-6 levels lower than in the saline control (IL-6 [2]; p<0.05): more than 2 fold
- changes in cell viability in cytotoxicity assays (HBE135 cells): No significant changes
- cytotoxicity compared to moxifloxacin and ciprofloxacin (HBE135 cells; HBE135 cells, 48 hour incubation, higher concentrations): less cytotoxic
- decrease in IL-6 levels (IL-6 [3]; 100 μg/ml): 45%
- decrease in IL-6 levels (IL-6 [3]; 300 μg/ml): 40%
- decrease in IL-1I3 levels (IL-1β; 100 μg/ml): 40%
- decrease in IL-1I3 levels (IL-1β; 300 μg/ml): 70%
- reduction in IL-6 levels (IL-6 [4]; [10]): ~10 fold
- reduction in IL-6 levels (IL-6 [4]; Example 5, NL20 cells, 10 ng/ml TNFα, 100 μg/ml, p<0.005): 2 fold
- reduction in IL-6 levels (IL-6 [4]; Example 5, NL20 cells, 10 ng/ml TNFα, 300 μg/ml, p<0.005): 4 fold
- reduced levels of IL-6 (IL-6 [4]; [11]): 4 fold

SMILES: O=C(O)c1cn(C2CC2)c2cc(N3CCNCC3)c(F)cc2c1=O [ciprofloxacin]
- change in IL-6 levels (IL-6 [4]; Example 1, NL20 cells, 10 ng/ml TNFα, 48 h, 10 μg/ml and 30 μg/ml antibiotic): No significant change
- IL-6 levels (IL-6 [4]; Example 1, NL20 cells, TNFα, 30 μg/ml): increase
